Assay results as given in patent US4713200A, “Pesticidal compounds” (Burroughs Wellcome Co., priority 1984, dated 1987).

What was measured:
Assay type in all cases: in vivo
[1] = system: female Culex quinquefasciatus; experiment: Knockdown activity against mosquitoes (wind tunnel spray); conditions: for KD10 min % effect: 10 min; for Kill: 24 hrs
Description: The knockdown activity of compounds was assessed as follows: Caged female Culex quinquefasciatus were sprayed in a wind tunnedl with 0.2 ml of a solution of the compound in odourless petroleum distillate (OPD)/dichloromethane (80/20) and knockdown was assessed at minute intervals for 10 mins. The insects were transferred to a holding cup and kept for 24 hrs with sugar/water. Mortalities were assessed at 24 hrs.

male Blattella germanica = experiment: Activity against cockroaches (deposit on glass)
Description: Knockdown was assessed after 10 and 60 minutes and mortality after 1 day and 6 days.

[2] = system: female Musca domestica (WRL strain); experiment: Lethal activity against house flies (topical application, with and without piperonyl butoxide); conditions: mortality after 48 hrs; for LD50 (synergised): with synergist 6 μg piperonyl butoxide per insect
Description: The test compound was applied with the application of the synergist (6 μg piperonyl butoxide (PB) per insect). Mortality was assessed after 48 hrs.

[3] = system: Mustard Beetle (Phaedon cochleariae) second-instar larvae; experiment: Activity against mustard beetle larvae (topical application)
Description: Second-instar larvae were used in all the tests and compounds were applied topically to the dorsal surface of the abdomen, using a microapplicator. Between 10 and 33 larvae were used at each concentration of the chemicals. Analar acetone and Analar butanone were used as solvents. In the first tests a 0.5 μl droplet was applied to each larva but after this the droplet size was increased to 1 μl as the larvae were unaffected by the solvents.
After treatment, all the larvae (usually 20) tested at a particular concentration were confined together on turnip leaves. The leaves were placed on damp filter paper in a petri dish and covered with a second layer of filter paper in the lid of the dish.
The petri dishes were maintained in an incubator at 20° C. and 16 h light. The turnip leaves were replaced as they were eaten by the larvae.
The larvae were assessed at intervals, from 1 h to 216 h after treatment. The following categories were used to classify the larvae:
i. Healthy larvae which were feeding and moved around the dish

[4] = system: third instar larvae of Aedes aegypti; experiment: Activity against mosquito larvae (aqueous suspension); conditions: 2.5 ppm cpd (+ 12.5 pb)
Sitophilus granarius = experiment: Activity against grain beetles (deposits on grain); conditions: 6 days
Description: Mortality was assessed after 6 days.

[5] = system: Mixed sex Musca domestica; experiment: Knockdown activity against houseflies (Kearns and March chamber spray); conditions: for KD10 min % effect: 10 min
Description: Mixed sex Musca domestica were held in a Kearns and March chamber and sprayed with 0.2 ml of a solution of the compound in OPD/dichloromethane. Knockdown was assessed at 1 min. intervals for 10 mins.

[6] = system: fully engorged female Boophilus microplus, susceptible strain; experiment: Activity against the cattle tick, injection; conditions: 10 μg/tick, 14 days
Description: The compound was supplied as a […] solution in DMSO:Acetone (1:1). Administration of the compound was by means of a microapplicator which was preset to deliver 0.2 μl of solution. The compound in solution was injected into fully engorged female Boophilus microplus, susceptible strain, at a site just lateral to the mouthparts at the rate of 10 μg/tick. Reducing the concentration reduced the dose delivered.
After injection the ticks were maintained at 24° C. and 85% RH for 14 days. At this time the ticks were examined for the presence of viable eggs which gave the percent inhibition of reproduction (% IR).

[7] = 0.03 % cpd (0.15 piperonyl butoxide)
[8] = 0.3 % cpd (1.5 piperonyl butoxide)
[9] = 500 μg/ml, 1 hour after treatment
[10] = 500 μg/ml, 20 hours after treatment
[11] = 1000 μg/ml, 1 hour after treatment
[12] = 1000 μg/ml, 20 hours after treatment
[13] = 0.1 % cpd (piperonyl butoxide entry printed "^")
[14] = 0.1 % cpd (0.5 piperonyl butoxide)

CC(C)CNC(=O)/C=C/C=C/CCCCOCc1cccc(C(F)(F)F)c1 [Example 2, N-isobutyl 9-(3'trifluoromethylbenzyloxy)-(2E,4E)-nonadienamide]
kT50 [1, 7]: 8.6 min
KD10 min % effect [1, 7]: 56%
Kill [1, 7]: 4%
kT50 [1, 8]: 1.2 min
KD10 min % effect [1, 8]: 100%
Kill [1, 8]: 71%
% mortality 1 day (male Blattella germanica; 1400 mg/m^2 (+ 1400 pb)): 50%
% mortality 6 day (male Blattella germanica; 1400 mg/m^2 (+ 1400 pb)): 50%
LD50 (synergised) [2]: 0.2 μg/fly
Dead (number of larvae) [3, 9]: 0
Healthy (number of larvae) [3, 9]: 0
Paralysed (number of larvae) [3, 9]: 33
Dead (number of larvae) [3, 10]: 24
Healthy (number of larvae) [3, 10]: 9
Paralysed (number of larvae) [3, 10]: 0
Dead (number of larvae) [3, 11]: 0
Healthy (number of larvae) [3, 11]: 0
Paralysed (number of larvae) [3, 11]: 33
Dead (number of larvae) [3, 12]: 29
Healthy (number of larvae) [3, 12]: 4
Paralysed (number of larvae) [3, 12]: 0
% mortality [4]: 100%
% mortality (Sitophilus granarius; 20 ppm cpd (+ 100 pb)): 84%
kT50 [5, 13]: 6.1 min
KD10 min % effect [5, 13]: 86%

CC(C)CNC(=O)/C=C/C=C/CCCCCCOCc1cc(C(F)(F)F)cc(C(F)(F)F)c1 [Example 4, N-isobutyl 11-(3',5'-bis-trifluoromethylbenzyloxy)-(2E,4E)-undecadienamide]
% mortality 1 day (male Blattella germanica; 700 mg/m^2 (+ 700 pb)): 32%
% mortality 6 day (male Blattella germanica; 700 mg/m^2 (+ 700 pb)): 32%
LD50 (synergised) [2]: 0.025 μg/fly
LD50 (unsynergised) ([2]; without synergist): 0.12 μg/fly
% mortality (Sitophilus granarius; 50 ppm cpd (+ 500 pb)): 100%

CC(C)CNC(=O)/C=C/C=C/CCCCCOCc1ccccc1 [Example 8, N-iso-butyl 10-(benzyloxy)-(2E,4E)-decadienamide]
LD50 (synergised) [2]: > 5 μg/fly

CC(C)CNC(=O)/C=C/C=C/CCCCOCCOc1cc(Cl)cc(Cl)c1 [Example 66, N--isobutyl 9-(2-(3',5'-dichlorophenoxy)-ethoxy)-nona-2E, 4E-dienamide]
kT50 [1, 14]: 1.2 min
KD10 min % effect [1, 14]: 96%
Kill [1, 14]: 40%
kT50 [5, 14]: 5.1 min
KD10 min % effect [5, 14]: 96%

CC(C)C(C)NC(=O)/C=C/C=C/CCCCOCc1ccc(OC(F)(F)F)cc1 (stereo not shown) [Example 85]
% IR (percent inhibition of reproduction) [6]: 100%
mortality at 10 µg/tick ([6]; Rhipicephalus microplus, 336 h, read-out: % kill): 50%

CC(C)ONC(=O)/C=C/C=C/CCCCOCc1cccc(C(F)(F)F)c1 [Example 89]
LD50 (synergised) [2]: > 5 μg/fly

CC(NC(=O)/C=C/C=C/CCCCCCOCc1cc(C(F)(F)F)cc(C(F)(F)F)c1)C(C)(C)C (stereo not shown) [Example 108]
LD50 (synergised) [2]: 0.09 μg/fly

CC1(C)CC1NC(=O)/C=C/C=C/CCCCCCOCc1cc(C(F)(F)F)cc(C(F)(F)F)c1 (stereo not shown) [Example 109]
LD50 (synergised) [2]: 0.09 μg/fly

CC(C)CNC(=O)/C=C/C=C/CCCCC(=O)Cc1cccc(C(F)(F)F)c1 [Example 122, N--Isobutyl 11-(3-trifluoromethylphenyl)-10-oxo-undeca-2E,-dienamide]
LD50 (synergised) [2]: > 1.5 μg/fly

CCC(CCC/C=C/C=C/C(=O)NCC(C)C)N(C)Cc1ccccc1 (stereo not shown) [Example 126, N--Isobutyl N'--methyl-N'--benzyl-9-aminoundeca-2E, 4E-dienamide]
LD50 (synergised) [2]: > 20 μg/fly
